The results in this text go back to PMC8185805, “An improved method for the incorporation of fluoromethyl ketones into solid phase peptide synthesis techniques” (RSC Advances, 2021).

*: point of attachment. Cbz = O=C(OCc1ccccc1)*; CH2F = FC*

The assay concerns 3CL^pro of SARS-CoV-2. Particulars: pH 7.6.

As for Cbz-SAVLD(OMe)-CH2F [compound 15], the “3CL^pro protease activity in the presence of PFMK inhibitor (gel-based cleavage of FLAG-His-SAVLQ-nsp9)” value is listed as “completely abolished”.
